Test results taken from patent publication US9023843B2, “Antimicrobial compounds and methods of making and using the same” (Melinta Therapeutics, Inc., priority 2009, dated 2015).

Each compound was assayed on Eschericia coli strain ATCC25922 (assay: standard microdilution assay to determine minimum inhibitory concentrations (MICs)). Conditions: Escherichia coli, read-out: E. coli ATCC25922 MIC.
Format: cell-based
Method: Minimum inhibitory concentrations (MICs) are determined by the microdilution method, typically in a final volume of 100 microliters, according to protocols outlined by The Clinical and Laboratory Standards Institute [CLSI; formerly the National Committee for Clinical Laboratory Standards (NCCLS)]. See CLSI: Methods for dilution antimicrobial susceptibility tests for bacteria that grow aerobically; approved standard-fifth edition. Wayne, Pa.: NCCLS; 2000. The assays can be also be performed in microtiter trays according to conventional methodologies as published by the CLSI. See CLSI. Methods for Dilution Antimicrobial Susceptibility Tests for Bacteria That Grow Aerobically; Approved Standard-Seventh Edition. CLSI Document M7-A7 [ISBN 1-56238-587-9] CLSI, 940 West Valley Road, Suite 1400, Wayne Pa. 19087-1898 USA, 2006).
The compounds of the present invention were tested for antimicrobial activity. The compounds were run against Eschericia coli strain ATCC25922 using a standard microdilution assay to determine minimum inhibitory concentrations (MICs). […] A “N/A” means that data is unavailable. It will be recognized by one skilled in the art that the compounds can be assessed against other bacterial organisms and that the presentation of data for activity against Eschericia coli is illustrative and in no way is intended to limit the scope of the present invention. The compounds of the present invention can be assayed against a range of other microorganisms depending upon the performance activity desired to be gathered. Furthermore, the “+”, “−”, and “N/A” representation and the selection of a cutoff value of 16 micrograms/ml is also illustrative and in no way is intended to limit the scope of the present invention.

Row | SMILES | MIC [µg/mL]
1 | N=C(N)NCCCN1CCC(n2cc3c(nc2=O)Nc2cc(-c4ccc(C(F)(F)F)nc4)ccc2O3)CC1 [Compound 690] | > 16
2 | CN(C)CC(=O)N1CCC(c2ccc3c(c2)Nc2nc(=O)n(C4CCN(CCCNC(=N)N)CC4)cc2O3)CC1 [Compound 691] | > 16
3 | N=C(N)NCCCN1CCC(n2cc3c(nc2=O)Nc2cc(C4CCN(S(=O)(=O)C5CC5)CC4)ccc2O3)CC1 [Compound 694] | > 16
4 | N=C(N)NCCCN1CCCC(n2cc3c(nc2=O)Nc2cc(C(=O)NCCc4cnc[nH]4)ccc2O3)CC1 (stereo not drawn) [Compound 707] | < 16
5 | N=C(N)NCCCN1CCCC(n2cc3c(nc2=O)Nc2cc(C(=O)NCCC4CCNCC4)ccc2O3)CC1 (stereo not drawn) [Compound 708] | < 16
6 | NCCCN1CCC(n2cc3c(nc2=O)Nc2cc(C4CCN(C(=O)CN)CC4)ccc2O3)CC1 [Compound 714] | > 16
7 | N=C(N)NCCCN1CCC(n2cc3c(nc2=O)Nc2cc(C4CCN(C(=O)CNC(=N)N)CC4)ccc2O3)CC1 [Compound 715] | < 16
8 | N=C(N)NCCCN1CCC(n2cc3c(nc2=O)Nc2cc(C4CCN(C(=O)C(N)CO)CC4)ccc2O3)CC1 (stereo not drawn) [Compound 718] | > 16
9 | N=C(N)NCCCN1CCC(n2cc3c(nc2=O)Nc2cc(C4CCN(C(=O)Nc5ccc(C(F)(F)F)cc5)CC4)ccc2O3)CC1 [Compound 729] | < 16
10 | N=C(N)NCCCN1CCC(n2cc3c(nc2=O)Nc2cc(C4CCN(C(=O)Nc5ccc(F)c(Cl)c5)CC4)ccc2O3)CC1 [Compound 730] | > 16
11 | NCCCNC1CCC(n2cc3c(nc2=O)Nc2cc(C(=O)NCCCN4CCNCC4)ccc2O3)CC1 (stereo not drawn) [Compound 731] | < 16
12 | N=C(N)NCCCNC1CCC(n2cc3c(nc2=O)Nc2cc(C(=O)NCCCN4CCNCC4)ccc2O3)CC1 (stereo not drawn) [Compound 732] | < 16
13 | N=C(N)NCCCN1CCC(n2cc3c(nc2=O)Nc2cc(C4CCN(C(=O)Nc5ccc(F)cc5)CC4)ccc2O3)CC1 [Compound 733] | > 16
14 | N=C(N)NCCCN1CCC(n2cc3c(nc2=O)Nc2cc(C4CCN(S(=O)(=O)c5cccnc5)CC4)ccc2O3)CC1 [Compound 738] | > 16
15 | NCCCNC1CCC(n2cc3c(nc2=O)Nc2cc(C(=O)NCCN4CCNCC4)ccc2O3)CC1 (stereo not drawn) [Compound 740] | < 16
16 | N=C(N)NCCCNC1CCC(n2cc3c(nc2=O)Nc2cc(C(=O)NCCN4CCNCC4)ccc2O3)CC1 (stereo not drawn) [Compound 741] | < 16
17 | NCCCN1CCC(n2cc3c(nc2=O)Nc2cc(C4CCN(C(=O)CN(Cc5ccc(F)c(F)c5)C5CCNCC5)CC4)ccc2O3)CC1 [Compound 748] | > 16
18 | N=C(N)NCCCN1CCC(n2cc3c(nc2=O)Nc2cc(C4CCN(C(=O)CN(Cc5ccc(F)c(F)c5)C5CCNCC5)CC4)ccc2O3)CC1 [Compound 749] | < 16
19 | Cn1cnc(S(=O)(=O)N2CCC(c3ccc4c(c3)Nc3nc(=O)n(C5CCC(NCCCNC(=N)N)CC5)cc3O4)CC2)c1 (stereo not drawn) [Compound 750] | > 16
20 | CN(C)CC(=O)N1CCC(c2ccc3c(c2)Nc2nc(=O)n(C4CCC(NCCCNC(=N)N)CC4)cc2O3)CC1 (stereo not drawn) [Compound 751] | < 16
21 | N=C(N)NCCCNC1CCC(n2cc3c(nc2=O)Nc2cc(C4CCN(C(=O)CNC(=N)N)CC4)ccc2O3)CC1 (stereo not drawn) [Compound 752] | < 16

Row | SMILES | MIC [µg/mL]
22 | N=C(N)NCCCNC1CCC(n2cc3c(nc2=O)Nc2cc(C4CCN(C(=O)CN(Cc5ccc(F)c(F)c5)C5CCNCC5)CC4)ccc2O3)CC1 (stereo not drawn) [Compound 753] | < 16
23 | NCCCNC1CCC(n2cc3c(nc2=O)Nc2cc(C4CCN(C(=O)CN(Cc5ccc(F)c(F)c5)C5CCNCC5)CC4)ccc2O3)CC1 (stereo not drawn) [Compound 754] | < 16
24 | N=C(N)NCCCNC1CCC(n2cc3c(nc2=O)Nc2cc(C(=O)NCCc4c[nH]cn4)ccc2O3)CC1 (stereo not drawn) [Compound 763] | > 16
25 | N=C(N)NCCCNC1CCC(n2cc3c(nc2=O)Nc2cc(C4CCN(C(=O)Nc5ccc(F)cc5)CC4)ccc2O3)CC1 (stereo not drawn) [Compound 765] | < 16
26 | CN1CCN(CCCNC(=O)c2ccc3c(c2)Nc2nc(=O)n(C4CCC(NCCCNC(=N)N)CC4)cc2O3)CC1 (stereo not drawn) [Compound 774] | < 16
27 | N=C(N)NCCCNC1CCC(n2cc3c(nc2=O)Nc2cc(C4CCN(C(=O)C5(N)CC5)CC4)ccc2O3)CC1 (stereo not drawn) [Compound 776] | < 16
28 | N=C(N)NCCCN1CCCC(n2cc3c(nc2=O)Nc2cc(C4CCN(C(=O)C5(N)CCCC5)CC4)ccc2O3)CC1 (stereo not drawn) [Compound 777] | < 16
29 | N=C(N)NCCCNC1CCC(n2cc3c(nc2=O)Nc2cc(C(=O)NCCCN4CCOCC4)ccc2O3)CC1 (stereo not drawn) [Compound 781] | < 16
30 | N=C(N)NCCCN1CCC(n2cc3c(nc2=O)Nc2cc(C4CCN(C(=O)Nc5cc(F)c(F)cc5F)CC4)ccc2O3)CC1 [Compound 782] | > 16
31 | N=C(N)NCCCNC1CCC(n2cc3c(nc2=O)Nc2cc(C4CCN(C(=O)C5(N)CCCC5)CC4)ccc2O3)CC1 (stereo not drawn) [Compound 783] | < 16
32 | N=C(N)NCCCN1CCCC(n2cc3c(nc2=O)Nc2cc(C4CCN(C(=O)CN)CC4)ccc2O3)CC1 (stereo not drawn) [Compound 793] | < 16
33 | NCCCN1CCCC(n2cc3c(nc2=O)Nc2cc(C4CCN(C(=O)CCN)CC4)ccc2O3)CC1 (stereo not drawn) [Compound 795] | > 16
34 | NCCCN1CCC(n2cc3c(nc2=O)Nc2cc(C(=O)NCCN4CCC[C@H](N)C4)ccc2O3)CC1 [Compound 798] | > 16
35 | N=C(N)NCC(=O)N1CCC(c2ccc3c(c2)Nc2nc(=O)n(C4CCCN(CCCN)CC4)cc2O3)CC1 (stereo not drawn) [Compound 832] | < 16
36 | N=C(N)NCCCN1CCCC(n2cc3c(nc2=O)Nc2cc(C4CCN(C(N)=O)CC4)ccc2O3)CC1 (stereo not drawn) [Compound 833] | < 16
37 | O=C(NCCCN1CCNCC1)c1ccc2c(c1)Nc1nc(=O)n(CCO)cc1O2 [Compound 858] | > 16
38 | NCCCN1CCCC(n2cc3c(nc2=O)Nc2cc(C(=O)N4CCC[C@H](N)C4)ccc2O3)CC1 (stereo partly drawn) [Compound 870] | > 16
39 | NCCCN1CCCC(n2cc3c(nc2=O)Nc2cc(C(=O)N4CCC[C@@H](N)C4)ccc2O3)CC1 (stereo partly drawn) [Compound 888] | > 16
40 | O=C(NCCCN1CCNCC1)c1ccc2c(c1)Nc1nc(=O)n(C3CCCNCC3)cc1O2 (stereo not drawn) [Compound 890] | > 16
41 | NC1CCCN(C(=O)c2ccc3c(c2)Nc2nc(=O)n(C4CCCNCC4)cc2O3)C1 (stereo not drawn) [Compound 891] | > 16
42 | NC1CCC(n2cc3c(nc2=O)Nc2cc(CC(=O)NCCCN4CCNCC4)ccc2O3)CC1 (stereo not drawn) [Compound 903] | > 16

Row | SMILES | MIC [µg/mL]
43 | N[C@@H]1CCCN(C(=O)c2ccc3c(c2)Nc2nc(=O)n(C4CCCNCC4)cc2O3)C1 (stereo partly drawn) [Compound 908] | > 16
44 | CCn1cc2c(nc1=O)Nc1cc(CNCCCN3CCNCC3)ccc1O2 [Compound 919] | > 16
45 | O=c1nc2c(cn1C1CCCNCC1)Oc1ccc(CNCCCN3CCNCC3)cc1N2 (stereo not drawn) [Compound 920] | > 16
46 | N[C@H]1CCCN(CCNCc2ccc3c(c2)Nc2nc(=O)n(C4CCCNCC4)cc2O3)C1 (stereo partly drawn) [Compound 921] | > 16
47 | NCCCN1CCC(n2cc3c(nc2=O)N[C@@H]2CCCC[C@H]2O3)CC1 [Compound 929] | > 16
48 | N=C(N)NCCCNC1CCC(n2cc3c(nc2=O)Nc2cc(C4=CCNCC4)ccc2O3)CC1 (stereo not drawn) [Compound 938] | < 16
49 | N=C(N)NCCCN1CCCC(n2cc3c(nc2=O)Nc2cc(C(=O)N4CCC[C@H](N)C4)ccc2O3)CC1 (stereo partly drawn) [Compound 950] | < 16
50 | N=C(N)NCCCN[C@H]1CC[C@H](n2cc3c(nc2=O)Nc2cc(CCN4CCOCC4)ccc2O3)CC1 [Compound 956] | < 16
51 | NC1CCC(n2cc3c(nc2=O)Nc2cc(C4CCNCC4)ccc2O3)CC1 (stereo not drawn) [Compound 972] | > 16
52 | N=C(N)NCCCNC1CCC(n2cc3c(nc2=O)Nc2cc(C4CCNCC4)ccc2O3)CC1 (stereo not drawn) [Compound 993] | < 16
53 | N=C(N)NCCC(=O)NC1CCC(n2cc3c(nc2=O)Nc2cc(C4CCNCC4)ccc2O3)CC1 (stereo not drawn) [Compound 1032] | < 16
54 | COCCN(C(=O)CN1CCC(c2ccc3c(c2)Nc2nc(=O)n(C4CCC(N)CC4)cc2O3)CC1)C1CCNCC1 (stereo not drawn) [Compound 1041] | > 16
55 | NC1CCC(n2cc3c(nc2=O)Nc2cc(C4CCN(CC(=O)N(CC5CC5(F)F)C5CCNCC5)CC4)ccc2O3)CC1 (stereo not drawn) [Compound 1042] | > 16
56 | NCCC(=O)NC1CCC(n2cc3c(nc2=O)Nc2cc(C4CCNCC4)ccc2O3)CC1 (stereo not drawn) [Compound 1086] | < 16
57 | NC1CCC(n2cc3c(nc2=O)Nc2cc(C4CCN(CC(=O)N(Cc5ccc6[nH]cnc6c5)C5CCNCC5)CC4)ccc2O3)CC1 (stereo not drawn) [Compound 1096] | > 16
58 | N=C(N)NCCS(=O)(=O)NC1CCC(n2cc3c(nc2=O)Nc2cc(C4CCNCC4)ccc2O3)CC1 (stereo not drawn) [Compound 1133] | < 16
59 | N=C(N)NCCCN(C(=O)CCN)C1CCC(n2cc3c(nc2=O)Nc2cc(C4CCNCC4)ccc2O3)CC1 (stereo not drawn) [Compound 1134] | < 16
60 | N=C(N)NCCCN(C(=O)CCNC(=N)N)C1CCC(n2cc3c(nc2=O)Nc2cc(C4CCNCC4)ccc2O3)CC1 (stereo not drawn) [Compound 1135] | < 16
61 | N=C(N)NCCC(=O)N(CCCN)C1CCC(n2cc3c(nc2=O)Nc2cc(C4CCNCC4)ccc2O3)CC1 (stereo not drawn) [Compound 1145] | < 16
62 | NCCCN(C(=O)CCN)C1CCC(n2cc3c(nc2=O)Nc2cc(C4CCNCC4)ccc2O3)CC1 (stereo not drawn) [Compound 1146] | < 16
63 | NCCS(=O)(=O)NC1CCC(n2cc3c(nc2=O)Nc2cc(C4CCNCC4)ccc2O3)CC1 (stereo not drawn) [Compound 1147] | > 16
